# Assay results published in publication PMC10987949, “Inhibition of HIV-1 release by ADAM metalloproteinase inhibitors” (Frontiers in Microbiology, 2024).
# “Also recorded” adds a separate entry of the source. Where a SMILES comes first, the peptide text is derived from it. [ ]: non-standard residue; d: D form. The star is where a group is joined. Sta = CC(C)C[C@H](N)[C@@H](O)CC(=O)O; Isovaleryl = CC(C)CC(=O)*; 4Abz = Nc1ccc(C(=O)O)cc1; Cbz = O=C(OCc1ccccc1)*; CH2Cl = ClC*; NHOH = ON*
# Assays:
# [1] = tested on: CD62L shedding; experiment: Soluble CD62L ELISA, anti-CD3/PHA stimulated PBMC or CD4 T cells; type: cell-based, human; details: for Shedding inhibition Stimulated / inhibition at 10 µM: 10 μM compound, stimulated cells; for Shedding inhibition Stimulated / inhibition at 10 µM / effect on CD62L shedding / soluble CD62L: ELISA; for inhibition at 10 µM: Homo sapiens; for effect on CD62L shedding from stimulated PBMC: titration of HAART compounds, concentration range tested; for effect on CD62L shedding / soluble CD62L: stimulated PBMC or CD4 T cells
# Method: PBMC from de-identified healthy donors were obtained with informed consent from the Department of Transfusion Medicine, National Institutes of Health under Biological reagent Registry RD-14-IX-12 approved by NIH biological safety board. […] IL-2 was added at a final concentration of 20 U/mL. CD3 antibody okt3 was used at ~0.2 μg/mL final concentration. […] Supernatants were collected and assessed using either the CD62L or TNF-α Duo Set ELISA kit according to manufacturer’s instructions (R&D Systems, Inc.). The viability of cells treated with compounds was assessed by acridine orange / propidiom iodide (AO/PI Logosbio catalog F23001) staining using Luna-FL cell counter following the manufacture’s instruction.^2
# [2] = tested on: HIV-1BAL; experiment: HIV-1BAL infection of CD8-depleted PBMC, FACS (intracellular p24, CD4, CD62L); type: cell-based; details: for effect on HIV-1BAL infection (intracellular p24): day 7 post infection, compounds at 100 μM, GI254023X at 250 μM
# Source text: The use of healthy human peripheral blood mononuclear cells (PBMC) is approved by the Department of Transfusion Medicine at the Clinical Center of National Institutes of Health. The use of PBMC from HIV-1 infected individuals for the study was approved under protocol #02-I-0202 by the Institutional Review Board (IRB) of National Institutes of Health with written informed consent from all donors. Peripheral blood mononuclear cells (PBMCs) from anonymous healthy donors were isolated by Ficoll-Paque gradient, and cultured in RPMI 1640 supplemented with 10% FBS, 1%Penicillin/streptomycin, 1% HEPES buffer and 20 U/mL IL-2 (culture media); and stimulated with 0.2 μg/mL anti-CD3 antibody (okt3) for 2 days. CD8^+ T cells were depleted prior to infection using the Stemcell CD8 positive selection kit according to manufacturer’s instructions. CD8-depleted PBMCs were plated at 2×10^6 cells/ml in 48-well plates in 1 mL culture media with various inhibitors for 60 min prior to the addition of ~80 TCID50 HIV-1BAL or HIV-1LAI. Inhibitors were replenished during media change every 3 days. The infections were proceeded with or without inhibitors for 6 days or otherwise specified number of days and then analyzed by FACS staining using fluorescent labeled CD4-BV510, CD62L-APC and CD3-PEC7 antibodies (BD Biosciences). Cells were then washed and permeabilized with CytoFix/CytoPerm (BD Biosciences) solution before intracellular staining for HIV p24 antigen using FITC conjugated anti-p24 antibody clone KC57 (Beckman Coulter, catalog 6604665). All assays were performed with cell viabilities >80%. Replication competent HIV-1 viruses were obtained from the NIH AIDS Reagent Program^4, and expanded by infecting activated CD8-depleted PBMCs, and TCID50 was determined by p24 ELISA.
Compound,Shedding inhibition Stimulated [1],inhibition at 10 µM [1],other results
CC(C)C[C@H](CC(=O)NO)C(=O)N[C@@H](Cc1ccc2ccccc2c1)C(=O)N[C@@H](C)C(N)=O [TAPI-0],++ (>50%),,accumulation of infected CD4−/CD62L− T cells (loss of CD62L) ([2]; HIV-1BAL infected cells): did not inhibit the accumulation; effect on HIV-1BAL infection (intracellular p24) [2]: fail to significantly suppress the viral infections
NCCc1ccc(S(=O)(=O)F)cc1 [AEBSF],− (0% inhibition),,
CC(C)CC(=O)N[C@H](C(=O)N[C@H](C(=O)N[C@@H](CC(C)C)[C@@H](O)CC(=O)N[C@@H](C)C(=O)N[C@@H](CC(C)C)[C@@H](O)CC(=O)O)C(C)C)C(C)C [Pepstatin A] (Isovaleryl-VV[Sta]A[Sta]-OH),,0%,
"CC(C)ON([C@@H](C(=O)NO)C(C)C)S(=O)(=O)c1ccc(-c2ccccc2)cc1 [ARP 101, (2R)-2-[([1,1′-Biphenyl]-4-ylsulfonyl)(1-methylethoxy)amino]-N-hydroxy-3-methyl-butanamide]",,< 20%,
Cc1ccnc2c1NC(=O)c1cccnc1N2C1CC1 [nevirapine],,,effect on CD62L shedding from stimulated PBMC [1]: did not inhibit CD62L shedding
CC[C@H](C)[C@H](NC(C)=O)C(=O)N[C@@H](CCC(=O)O)C(=O)N[C@H](C(=O)N[C@H](C=O)CC(=O)O)[C@@H](C)O [GrzB II] (Ac-IETD-aldehyde),− (0% inhibition),,
Aprotinin,− (0% inhibition),,
"O=c1oc(Cl)c(Cl)c2ccccc12 [3,4-DCIC, 3,4-Dichloroisocouman]",− (0% inhibition),,effect on CD62L shedding / soluble CD62L [1]: significantly increased soluble CD62L concentration; also recorded: enhanced CD62L shedding; effect on HIV-1BAL infection (intracellular p24) [2]: did not enhance HIV-1 infection
CC(=O)N[C@@H](CC(C)C)C(=O)N[C@@H](CC(C)C)C(=O)N[C@H](C=O)CCCNC(=N)N [Leupeptin],,0%,
"CC(C)(C)OC(=O)N[C@H]1[C@@H]2CNC[C@@H]21 [CP-101537, N-(1a,5a,6a)-3-Azabicyclo[3.1.0]hex-6-yl-carbamic acid 1,1-dimethylethyl ester]",− (0% inhibition),,
"CC(C)(NS(=O)(=O)c1ccc(Oc2ccc(F)cc2)cc1)C(=O)NO [CP-471474, 2-[[[4-(4-Fluorophenoxy)phenyl]sulfonyl]amino]-N-hydrox y-2-methylpropanamide]",,0%,
TAPI,,,effect on CD62L shedding / soluble CD62L [1]: suppressed CD62L shedding
CC[C@H](C)[C@H](NC(C)=O)C(=O)N[C@@H](CCC(=O)O)C(=O)N1CCC[C@H]1C(=O)N[C@H](C=O)CC(=O)O [GrzB IV] (Ac-IEPD-aldehyde),− (0% inhibition),,
CC(C)C[C@H](CC(=O)NO)C(=O)N[C@H](C(=O)N[C@@H](C)C(=O)NCCN)C(C)(C)C [TAPI-2],++ (>50%),,
"CC1(c2ccccc2)NC(=O)NC1=O (stereo not drawn) [Compound 5-m-5-p, 5-methyl-5-phenylhydantoin]",,0%,
Cc1nnc(C(=O)NC(C)(C)c2nc(C(=O)NCc3ccc(F)cc3)c(O)c(=O)n2C)o1 [raltegravir],,,effect on CD62L shedding from stimulated PBMC [1]: did not inhibit CD62L shedding

Compound,Shedding inhibition Stimulated [1],inhibition at 10 µM [1],other results
O=S(=O)(CC1CS1)c1ccc(Oc2ccccc2)cc1 (stereo not drawn) [SB-3CT],− (0% inhibition),,
"CCCC(C)NC(=O)c1ccc(Cl)c(Cl)c1 (stereo not drawn) [NSC405020, 3,4-Dichloro-N-(1-methylbutyl)-benzamide]",,0%,
C[C@H](NC(=O)OCc1ccccc1)C(=O)N[C@@H](C)C(=O)N[C@@H](CC(=O)O)C(=O)CCl [GrzB I] (Cbz-Ala-Ala-Asp-CH2Cl),− (0% inhibition),,
O=S(=O)(F)Cc1ccccc1 [PMSF],− (0% inhibition),,
"CC(C)C[C@@H](NC(=O)[C@@H]1CCCN1C(=O)CNC(=O)c1ccc(N)cc1)C(=O)N[C@@H](C)C(=O)NO [Compound 4-m-GPDLA, 4-aminobenzoyl-Gly-Pro-D-Leu-ala hydroxamic acid] (H-[4Abz]GP[dL]A-{NHOH})",− (0% inhibition),,
"CC(C)[C@H](NS(=O)(=O)c1ccc(-c2ccc(Br)cc2)cc1)C(=O)O [PD166793, (S)-2-(4′-Bromo-biphenyl-4-sulfonylamino)-3-methyl-butyric acid hydrate]",,0%,
"COc1ccc(S(=O)(=O)N(CC(=O)NO)CC(C)C)cc1 [NNGH, N-Isobutyl-N-(4-methoxyphenylsulfonyl)glycyl hydroxamic acid]",− (0% inhibition),,
C[C@H]1c2cccc(O)c2C(=O)C2=C(O)[C@]3(O)C(=O)C(C(N)=O)=C(O)[C@@H](N(C)C)[C@@H]3[C@@H](O)[C@@H]21 [Doxycycline],,0%,
CC(C)C[C@H](NC(=O)[C@H]1O[C@@H]1C(=O)O)C(=O)NCCCCN=C(N)N [Compound E64],− (0% inhibition),,
CC(C)C[C@H](NC(=O)[C@@H](O)[C@H](N)Cc1ccccc1)C(=O)O [Bestatin],,0%,
"OB(O)c1ccc2[nH]ccc2c1 [Compound 5-Indolylb, 5-indolylboronic acid]",,0%,
N=C(N)c1ccc2cc(OC(=O)c3ccc(N=C(N)N)cc3)ccc2c1 [Nafamostat],,0%,
Cystatin,− (0% inhibition),,
NC(=O)CI [Iodoacetamide],− (0% inhibition),,
C[C@@H]1CCO[C@H]2Cn3cc(C(=O)NCc4ccc(F)cc4F)c(=O)c(O)c3C(=O)N12 [Doultegravir],,,"p24 staining in HIV-1BAL infection of PBMC ([2]; day 6, 0.5μM compounds): no significant staining"
CC(C)C[C@H](CC(=O)NO)C(=O)N[C@@H](Cc1ccc2ccccc2c1)C(=O)N[C@@H](C)C(=O)NCCN [TAPI-1],++ (>50%),,
